Data as given in patent publication US11298314B2, “Injectable composition for localized fat reduction without pain, edema, and side effects, and method for preparing same” (AMI PHARM CO., LTD., priority 2017, dated 2022).
“Also recorded” adds a separate entry of the source.

Columns and labels:
[1] = tested on: tissues of the injected area (rat paw); experiment: H&E staining histological test (inflammation) of injected rat paw; type: in vivo, Sprague Dawley rats; conditions: bile acid single composition 1.0% (w/v), injected rat paw
Procedure: The tissues of the injected area were dissected, fixed with 10% formalin, and then the specimen was prepared and images were captured using an optical microscope. The degree of inflammation was evaluated as follows.

[2] = tested on: sole of the rat paws; experiment: Measurement of skin lesion (erythema) on rat paw; type: in vivo, Sprague Dawley rats; conditions: for skin lesion (erythema) in words: 2 hours after administration;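 on grade of skin lesion (erythema), 1 hour after administration: grades − to ++++ mean no to extremely severe erythema versus before injection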;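 on grade of skin lesion (erythema), 2 hours after administration: grades − to ++++ mean no to extremely severe erythema versus before injection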;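 on grade of skin lesion (erythema), Immediately after administration: grades − to ++++ mean no to extremely severe erythema versus before injection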
Procedure, shortened: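 Male Sprague Dawley rats (6 weeks, 170–200 g) received 0.1 ml test composition or PBS injected into the paw. Paw thickness measured by caliper before, immediately after, and 1 or 2 h post-injection; sole lesions photographed and graded 0–4.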

[3] = Formulation stability of PPC injectable preparations: property, transparency, particle size, pH; conditions: based on PPC 5.0%
Procedure: The particle size was measured using a nano particle size analyzer (Microtrac Wave, MICROTRACT, USA). […] The transparency was measured using a spectrophotometer (CM-3600d, KONICA MINOLTA, JAPAN). The pH was measured with a pH meter (ST3100, OHAUS, GERMANY), and the isotonicity was measured with an osmotic pressure meter (Vapro 5600, Elitech Group, Tokyo, Japan), and viscosity was analyzed using a viscometer (Digital Viscometer CL-2, CAS, Korea).
The washed and sterilized preparation tank was charged with the water for injection (at room temperature), and phosphatidylcholine (PPC) and benzyl alcohol were added thereto, and the mixture was stirred at 200 RPM for 2 hours under the condition of nitrogen pressure, shading and room temperature. After the completion of stirring, the mixture was transferred to an ultra-high pressure homogenizer (Nano Disperser NLM100, Ilshin Autoclave, Korea) with a nitrogen pressure. Ultra-high pressure homogenization (dispersion) was carried out at 12,000 psi for 7 cycles, and the particles were finely pulverized. Then, the pH was adjusted. After filtration through a 0.2 μm filter, the vial was filled and sealed.
Specifically, the water for injection was put into the preparation tank which was cleaned and sterilized (room temperature), and sodium hydroxide was added to the water for injection. Then deoxycholic acid and benzyl alcohol were added, stirred and dissolved. Then, phosphatidylcholine was added thereto, and the mixture was stirred at 200 RPM for about 24 hours under shading, sealing, room temperature (25° C.), and nitrogen pressure. After completion of the stirring, the pH was adjusted (if necessary, with additional sodium hydroxide or hydrochloric acid), and it was filtered through a 0.2 μm filter, and filled into the vial and sealed.
Then glycocholic acid and benzyl alcohol were added, stirred and dissolved. Then, phosphatidylcholine was added thereto, and the mixture was stirred at 200 RPM for about 24 hours under shading, sealing, room temperature (25° C.), and nitrogen pressure. After completion of the stirring, the pH was adjusted (if necessary, with additional sodium hydroxide or 0.001-0.6% of hydrochloric acid), and it was filtered through a 0.2 μm filter, and filled into the vial and sealed.
The formulation stability of the PPC injectable compositions solubilized with glycocholic acid (GCA) in Tables 3 and 4 was evaluated immediately after the preparation and 30 days after the preparation (refrigerated storage).

[4] = tested on: inguinal fat pad; conditions: 0.2 ml s.c. once into inguinal fat pad, 8 days post-injection; listed as DCA single composition
[5] = tested on: paw of the rats; experiment: Rat paw edema; type: in vivo, Sprague Dawley rats; conditions: for degree of edema in words: 2 hours after administration, rat paw; for degree of edema, 1 hour after administration / degree of edema, 2 hours after administration / degree of edema, Immediately after administration: 0.1 ml into rat paw
Procedure, shortened: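 Male Sprague Dawley rats (6 weeks old, 170–200 g) received 0.1 ml of PBS or test composition into the paw. Paw thickness measured by caliper before, immediately after, and 1 or 2 h post-injection; edema graded 0–4, with injection-site skin lesions photographed.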

[6] = tested on: Caspase 3 in 3T3-L1 adipocytes; experiment: Caspase 3 activity assay; type: cell-based
Procedure: The Caspase 3 activity assay was performed with the test materials to determine whether the cell death in the result of MTT assay was due to necrosis or apoptosis. The Caspase 3 specifically increases when apoptosis occurs and is a marker of apoptosis. […] The cells were then treated with 50 ul of cell lysis buffer (10 mM Tris-HCl, 10 mM NaH2PO4/NaHPO4, pH 7.5, 130 mM NaCl, 1% Triton X-100 and 10 mM sodium pyrophosphate) and left at 4° C. for […]. The supernatant was collected by centrifugation at 1000× rpm for 1 minute, and protein quantification was performed by BCA method. The 50 μl of reaction buffer (4 mM HEPES, pH 7.5, 10% glycerol, 2 mM dithiothreitol) and 0.5 μl of 4 mM DEVD-p-NA were added to each sample and reacted at 37° C. for 1 hour. Then wavelength was measured with a […] at 405 nm.

[7] = tested on: 3T3-L1 adipocytes; experiment: Lipolysis assay (glycerol release); type: cell-based; conditions: 48 hours; listed as DCA single
Procedure: The glycerol activity assay was performed with the test materials to determine whether the cell death in the MTT assay was due to necrosis or lipolysis. Glycerol is a specific marker that increases when fat breaks down. Abcam Lipolysis Assay Kit (Colorimetric) was used according to the manufacturer's manual, and the method of the test was as follows: […] And then the lysis was induced. […] After adding the glycerol assay complex (50 μl) thereto, the solution was incubated at room temperature for 30 minutes. Absorbance was measured at OD 570 (using standard curve for absolute determination).

[8] = bile acid single composition 1.0% (w/v)
[9] = bile acid single composition 2.5% (w/v)
[10] = bile acid single composition 5.0% (w/v)
[11] = bile acid single composition 7.5% (w/v)

## C[C@H](CCC(=O)O)[C@H]1CC[C@H]2[C@@H]3CC[C@@H]4C[C@H](O)CC[C@]4(C)[C@H]3C[C@H](O)[C@]12C [DCA, (4R)-4-[(3R,5R,8R,9S,10S,12S,13R,14S,17R)-3,12-dihydroxy-10,13-dimethyl-2,3,4,5,6,7,8,9,11,12,14,15,16,17-tetradecahydro-1H-cyclopenta[a]phenanthren-17-yl]pentanoic acid]
[1]
  Inflammation (H&E), BA % (w/v) 1.0: +++
[2]; listed as DCA 1.0%
  skin lesion (erythema) in words: Moderate
[2]; listed as DCA 2.5%
  skin lesion (erythema) in words: “severe” and “extremely severe”
[2]; [8]
  grade of skin lesion (erythema), 1 hour after administration: ++
  grade of skin lesion (erythema), 2 hours after administration: ++
  grade of skin lesion (erythema), Immediately after administration: ++
[2]; [9]
  grade of skin lesion (erythema), 1 hour after administration: ++++
  grade of skin lesion (erythema), 2 hours after administration: +++
  grade of skin lesion (erythema), Immediately after administration: ++
[2]; [10]
  grade of skin lesion (erythema), 1 hour after administration: ++++
  grade of skin lesion (erythema), 2 hours after administration: ++++
  grade of skin lesion (erythema), Immediately after administration: ++
[2]; [11]
  grade of skin lesion (erythema), 1 hour after administration: ++++
  grade of skin lesion (erythema), 2 hours after administration: ++++
  grade of skin lesion (erythema), Immediately after administration: ++
[3]
  bile acid concentration at which stable injectable preparations can be made: ≥ 2.1%
[4]
  inflammation at the site of administration, dermal and epidermal tissues: severe inflammation was induced
[5]; listed as DCA 1.0%
  degree of edema in words: severe
[5]; listed as DCA 2.5%
  degree of edema in words: “severe” and “extremely severe”
[5]; [8]
  degree of edema, 1 hour after administration: +++ (severe edema [+++, (the degree of swelling was 40-60% compared to before the injection)])
  degree of edema, 2 hours after administration: +++ (severe edema [+++, (the degree of swelling was 40-60% compared to before the injection)])
  degree of edema, Immediately after administration: ++ (moderate edema [++, (the degree of swelling was 20-40% compared to before the injection)])
[5]; [9]
  degree of edema, 1 hour after administration: ++++ (extremely severe edema [++++, (the degree of swelling was 60% or more compared to before the injection)])
  degree of edema, 2 hours after administration: ++++ (extremely severe edema [++++, (the degree of swelling was 60% or more compared to before the injection)])
  degree of edema, Immediately after administration: ++ (moderate edema [++, (the degree of swelling was 20-40% compared to before the injection)])
[5]; [10]
  degree of edema, 1 hour after administration: ++++ (extremely severe edema [++++, (the degree of swelling was 60% or more compared to before the injection)])
  degree of edema, 2 hours after administration: ++++ (extremely severe edema [++++, (the degree of swelling was 60% or more compared to before the injection)])
  degree of edema, Immediately after administration: ++ (moderate edema [++, (the degree of swelling was 20-40% compared to before the injection)])
[5]; [11]
  degree of edema, 1 hour after administration: ++++ (extremely severe edema [++++, (the degree of swelling was 60% or more compared to before the injection)])
  degree of edema, 2 hours after administration: ++++ (extremely severe edema [++++, (the degree of swelling was 60% or more compared to before the injection)])
  degree of edema, Immediately after administration: ++ (moderate edema [++, (the degree of swelling was 20-40% compared to before the injection)])
[6]; after 48 hours
  caspase-3 activity: returned to pretreatment levels
[6]; up to 24 hours
  caspase-3 activity: some caspase-3 activity
[7]
  glycerol release / cytolytic activity: slightly higher cytolytic activity than at 24 hours; also recorded: slightly higher cytolytic activity than that of 24 hours
